Reference: PubChem BioAssay AID466 (The Scripps Research Institute Molecular Screening Center, 2006)
Active and inactive are the calls of the source. No rule for the calls is given here.

Target: Sphingosine 1-phosphate receptor 1 (Homo sapiens) (UniProt P21453)
Experiment: S1P1 agonism potentiation – cell-based, potentiator mode, 60K MLSMR set, dose response (AID 466)
Conditions: S1P1 cell assay, potentiation of agonist response

Sequence of Sphingosine 1-phosphate receptor 1 (Homo sapiens) (P21453 whole entry, looked up): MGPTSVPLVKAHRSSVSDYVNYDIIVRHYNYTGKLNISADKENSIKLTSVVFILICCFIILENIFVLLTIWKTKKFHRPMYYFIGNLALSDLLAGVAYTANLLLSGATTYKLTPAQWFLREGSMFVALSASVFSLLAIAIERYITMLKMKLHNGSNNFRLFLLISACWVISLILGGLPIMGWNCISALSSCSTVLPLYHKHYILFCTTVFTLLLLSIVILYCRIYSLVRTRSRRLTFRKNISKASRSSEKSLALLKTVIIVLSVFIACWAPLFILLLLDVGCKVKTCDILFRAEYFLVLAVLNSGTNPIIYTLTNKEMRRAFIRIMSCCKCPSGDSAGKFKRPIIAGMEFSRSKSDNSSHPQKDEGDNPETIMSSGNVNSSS

Question: With `CCC(=NCc1ccc2c(c1)OCO2)c1c(O)n(C2CCCCC2)c(=O)[nH]c1=O` as the compound, how does the EC50 read?
Answer: 8.66 µM

Question: With `CCC(=NCCOc1ccc(Cl)cc1)c1c(O)n(C)c(=O)n(C)c1=O` as the compound, how does the EC50 read?
Answer: 5.34 µM

Question: `CC(=O)c1ccc(NC(=O)N2CCN(c3cccc(Cl)c3)CC2)cc1` was tested. Which EC50 did it give?
Answer: 9.84 µM

Question: With `COC(=O)CC1SC(=O)NC1=Nc1ccccc1` (stereo not given) as the compound, how does the EC50 read?
Answer: > 95 µM (inactive)

Question: Which EC50 does the source give for `CC(C)c1ccc2oc(-c3cc(N)ccc3O)nc2c1` here?
Answer: 9.39 µM

Question: With `Cc1cc(N2CCOCC2)nc(NCc2ccccc2)n1` as the compound, how does the EC50 read?
Answer: inactive

Question: How did the EC50 turn out when `O=C(C1CCN(S(=O)(=O)c2cccc3cccnc23)CC1)N1CCN(c2ccc(Cl)cc2)CC1` was run?
Answer: inactive

Question: How did the EC50 turn out when `COc1ccc(/C=N/O)cc1COc1ccc(NC(C)=O)cc1` was run?
Answer: > 95 µM (inactive)

Question: `CC1=C(C(=O)OCc2ccc3c(c2)OCO3)C(c2ccc(F)cc2)NC(=O)N1` (stereo not given) was tested. Which EC50 did it give?
Answer: 0.631 µM

Question: With `CCOC(=O)C1CCN(c2ncnc3c2oc2ccccc23)CC1` as the compound, how does the EC50 read?
Answer: inactive

Question: For `Cc1[nH]nc2c1C1(C(=O)N(Cc3ccc(Cl)cc3)c3ccccc31)C(C#N)=C(N)O2` (stereo not given), which EC50 is on record?
Answer: inactive

Question: `COc1ccc(N2C(=O)CC(Sc3ncn[nH]3)C2=O)c(OC)c1` (stereo not given) was tested. Which EC50 did it give?
Answer: inactive

Question: Which EC50 does the source give for `COc1ccc(/C(O)=C2/C(=O)C(=O)N(CC3CCCO3)C2c2cccc(OC)c2)cc1` (stereo not given) here?
Answer: > 95 µM (inactive)

Question: `C/C(N)=C(/C#N)C(=O)CSc1nnc(SCc2ccc(Cl)cc2)s1` was tested. Which EC50 did it give?
Answer: 9.63 µM

Question: For `Cc1ccc(NC(=O)c2cc(-c3ccco3)on2)cc1C`, which EC50 is on record?
Answer: 5.02 µM

Question: `COc1ccc(N=c2scc(-c3ccc(S(=O)(=O)N4CCOCC4)cc3)n2CCCO)cc1` was tested. Which EC50 did it give?
Answer: inactive

Question: Which EC50 does the source give for `CCOC(=O)c1cccc2c1-c1ccccc1/C2=N/O` here?
Answer: inactive

Question: Which EC50 does the source give for `CCCCc1ccc(C2C(C#N)=C(N)SC(N)=C2C#N)s1` here?
Answer: inactive

Question: Which EC50 does the source give for `CCC(=NC(C)c1ccccc1)c1c(O)n(C)c(=O)n(C)c1=O` (stereo not given) here?
Answer: inactive

Question: Which EC50 does the source give for `CC(C)c1ccc(OCc2nc(-c3ccccn3)no2)c(Br)c1` here?
Answer: 4.43 µM

Question: With `FC(F)(F)c1ccc(N2CCN(c3cc(-c4ccccc4)nc4ncnn34)CC2)nc1` as the compound, how does the EC50 read?
Answer: inactive

Question: With `Cn1nc(CC(=O)Nc2ccc3c(c2)OCCO3)c2ccccc2c1=O` as the compound, how does the EC50 read?
Answer: 5.94 µM

Question: For `O=C1C2C3C=CC(CO)(O3)C2C(=O)N1c1ccccc1-c1ccccc1` (stereo not given), which EC50 is on record?
Answer: 6.82 µM

Question: How did the EC50 turn out when `c1ccc2c(c1)CCN(c1ncnc3c1[nH]c1ccccc13)C2` was run?
Answer: 1.18 µM

Question: `C/C(N)=C(/C#N)C(=O)CSc1nc2cc(Cl)ccc2s1` was tested. Which EC50 did it give?
Answer: inactive

Question: How did the EC50 turn out when `CC1(C)CC(=O)C(C=Nc2ccc3[nH]ncc3c2)=C(O)C1` was run?
Answer: 6.01 µM

Question: `CCOc1ccc(C(C)=O)cc1N1C(=O)C2C3C=CC(O3)C2C1=O` (stereo not given) was tested. Which EC50 did it give?
Answer: inactive

Question: How did the EC50 turn out when `Cc1ccc2[nH]c3c(N4CCCCCC4)ncnc3c2c1` was run?
Answer: 4.14 µM

Question: `NC(=O)c1ccc(OCC(F)(F)C(F)(F)C(F)(F)C(F)(F)C(F)(F)C(F)F)cc1` was tested. Which EC50 did it give?
Answer: 7.96 µM

Question: For `Cc1nn(Cc2ccc(Cl)c(Cl)c2)c(C)c1NC(=O)c1cc(-c2ccco2)on1`, which EC50 is on record?
Answer: 5.57 µM

Question: For `Cc1nn(Cc2ccc(Cl)c(Cl)c2)c(C)c1NC(=O)c1cc(C2CC2)on1`, which EC50 is on record?
Answer: inactive

Question: For `CNc1oc(-c2ccc(OCc3ccccc3)cc2)nc1C#N`, which EC50 is on record?
Answer: 3.24 µM

Question: `CC(C)Cn1c(N)c(C(=O)CSc2ccc3c(c2)OCCO3)c(=O)n(C)c1=O` was tested. Which EC50 did it give?
Answer: inactive

Question: For `CC(=O)Oc1ccc(N2C(=O)C3C(C2=O)C2(C)C=CC3(C)O2)cc1` (stereo not given), which EC50 is on record?
Answer: inactive

Question: How did the EC50 turn out when `CC1=C(C(=O)OCc2ccc3c(c2)OCO3)C(c2ccccc2)NC(=O)N1` (stereo not given) was run?
Answer: 3.42 µM
